# Values quoted from earlier work, collected in patent publication US20110212944A1, “2-OXO-1-PYRROLIDINE DERIVATIVES” (priority 2008, published 2011).
smiles,measurement,setting,value
"CCC[C@@H]1CC(=O)N([C@@H](CC)C(N)=O)C1 [brivaracetam, 2(S)-[2-oxo-4(R)-propylpyrrolidin-1-yl]butyramide]",time after drug administration within which adverse events subsided,after drug administration,≤ 24 h
same,severity of treatment emergent adverse events,"primarily CNS-related events (dizziness, somnolence, headache etc.)",mild to moderate
